According to patent US12508280B2, “Formulations for improving gut health” (DSM IP ASSETS B.V., priority 2018, dated 2025):

Legend:
[1] = test system: genes involved in Acetyl-CoA fermentation to Butyrate pathway; experiment: Shotgun sequencing functional analysis: butyrate pathway genes (first set); type: cell-based, human; conditions: after 24 h fermentation, vs corresponding control
Description: (§1) Since ethanol is known to have antimicrobial effects, two blanks for each type of stock solution were included. As a source of the microbial community, a freshly prepared fecal suspension from the selected donor was added to the reactors. […] All tests, except the blanks, were performed in single repetition, resulting in 40 independent incubations, as specified in Table 1. Incubation conditions of the pre-screening experiment and the final experiment were 48 h at 37° C., under shaking (90 rpm) and anaerobic conditions. DNA were extracted from effluent samples collected from each fermentation flask before (0 h fermentation) and after fermentation (24 h fermentation) and use for microbiome composition analysis by Shotgun sequencing. Effluent samples were collected from each fermentation flask before (0 h fermentation) and after fermentation (48 h fermentation), sterilized by filtering through 0.22 μm filters and used for short chain fatty acids (SCFA), quantification of immunological biomarkers and in vitro analysis in cell culture systems.
(§2) For the first set of in vitro experiments, total DNA was extracted from all samples collected throughout the study using the QIAamp DNA stool minikit (Qiagen, Crawley, United Kingdom) according to the manufacturer's instructions, apart from addition of a bead-beating step and increasing the lysis temperature to 95° C. as described previously (McCormack et al., 2018).
(§3) After DNA isolation, DNA was quantified using the Qubit High Sensitivity DNA assay (Thermo Fisher). Whole metagenome libraries were then prepared using the Illumina Nextera XT kit (Illumina) in accordance with the manufacturer's instructions, with the following modifications: Firstly, tagmentation time was increased to 7 min and secondly, following incorporation of indices and Ampure purification of the products, the samples were each individually sized by running on an Agilent High Sensitivity Chip (Agilent) and quantified using the Qubit High Sensitivity DNA assay (Thermo Fisher) in accordance with Teagasc Sequencing Platform SOPs. The samples were then pooled equimolarly and sequenced on the Illumina NextSeq 500 with a NextSeq 500/550 v2 high-output reagent kit (300 cycles). All sequencing was done in the Teagasc sequencing facility in accordance with standard Illumina sequencing protocols.
(§4) Delivered raw FASTQ sequence files were quality checked as follows: poor quality and duplicate read removal, as well as trimming was implemented using a combination of SAM and Picard tools. Taxonomy was assigned to the reads using the Kraken software and functional analysis was performed with Super focus.

[2] = test system: fecal suspension from the selected donor; experiment: Intestinal batch fermentation, SCFA production (first set); type: cell-based, human; conditions: after 48 h fermentation, vs corresponding control
Description: In a first set of in vitro experiments at the start of intestinal batch fermentation incubation, all test ingredients were added from stock solutions to the modified nutritional medium, containing (g/l): 2.5 K2HPO4, 10.9 KH2PO4, 2 NaHCO3, 2 yeast extract, 2 peptone, 1 mucin, 0.5 cysteine, 2 Tween 80, 2 glucose, 2 starch, 2 cellobiose, 0.1 NaCl, 0.01 MgSO4·7H2O, 0.01 CaCl2·6H2O, 0.05 hemin, 0.5 bile salts.
The other compounds were prepared in ethanol: • Vitamin K1 (VK1), • MEG-3 0080 EE Oil (MEG-3 0080 EE), • MEG-3 4535 EE Oil (MEG-3 4535 EE), • MEG-3 8000 EE Oil (MEG-3 8000 EE).
as §1
Short chain fatty acids (SCFA) are an assessment of the microbial carbohydrate metabolism (acetate, propionate and butyrate) or protein metabolism (branched SCFA) and can be compared to typical fermentation patterns for normal GI microbiota. Samples for SCFA analysis were analyzed after 0, 6, 24 and 48 h of incubation for both set of in vitro experiments, above.
SCFA were extracted from the samples with diethyl ether, after the addition of 2-methyl hexanoic acid as an internal standard. Extracts were analysed using a GC-2014 gas chromatograph (Shimadzu's-Hertogenbosch, the Nether-lands), equipped with a capillary fatty acid-free EC-1000Econo-Cap column (dimensions: […]×0.53 mm, film thickness […]; Alltech, Laarne, Belgium), a flame ionization detector and a split injector. The injection volume was […] and the temperature profile was set from 110 to 160° C., with a temperature increase of 6° C. min-1. The carrier gas was nitrogen and the temperature of the injector and detector were […] and 220° C., respectively. The production of unbranched and branched SCFA was calculated by summing the molar concentrations of acetate, propionate, butyrate, valerate and caproate, and summing isobutyrate, isovalerate and isocaproate molar concentrations, respectively. The total SCFA production was defined as the sum of unbranched and branched SCFA.

Bifidobacterium = experiment: Microbiome composition by shotgun sequencing: Bifidobacterium (first set); type: cell-based, human; conditions: after 24 h fermentation, vs corresponding control
Description: as §1, §2, §3, §4

[3] = test system: Co-cultures of Caco-2 and HT29-MTX-E12 cells; experiment: Barrier integrity, leaky gut model, apical stressor Rhamnolipids; type: cell-based; conditions: vs corresponding control; for TEER, apical induction of leaky gut cellular model: 48 h minus 0 h fermentation samples; for Lucifer yellow, apical induction of leaky gut cellular model: 48 h fermentation samples
Description: Since ethanol is known to have antimicrobial effects, two blanks for each type of stock solution were included. As a source of the microbial community, a freshly prepared fecal suspension from the selected donor was added to the reactors. […] All tests, except the blanks, were performed in single repetition, resulting in 40 independent incubations, as specified in Table 1. Incubation conditions of the pre-screening experiment and the final experiment were 48 h at 37° C., under shaking (90 rpm) and anaerobic conditions. […] Effluent samples were collected from each fermentation flask before (0 h fermentation) and after fermentation (48 h fermentation), sterilized by filtering through 0.22 μm filters and used for short chain fatty acids (SCFA), quantification of immunological biomarkers and in vitro analysis in cell culture systems.
Co-cultures of Caco-2 and HT29-MTX-E12 cells were used to assess the protective effect of the supernatants before (0 h) and after fermentation (48 h) for both sets of in vitro experiments above.
CaCo-2 ECACC 86010202 and HT29-MTX-E12 ECACC 12040401 cells (both from European Collection of Cell Cultures, Salisbury, UK) were both cultured at 37° C., in atmosphere of 5% CO2 in DMEM medium supplemented with 4.5 g/L D-Glucose, 4 mM L-Glutamine, 1 mM Sodium Pyruvate, 1% MEM Non-Essential Amino Acids, 50 μg/mL Gentamicin (Life Technologies Europe B.V., Zug, Switzerland) and 10% heat-inactivated FBS (Sigma-Aldrich, Buchs, Switzerland). Sub-confluent cells were trypsinized using 0.25% Trypsin/EDTA (Life Technologies Europe B.V., Zug, Switzerland) and passaged at a ratio of 1:5-1:10 twice a week. Cells between passages 55 and 85 were used for this study.
Cells were seeded at a density of 20000 cells/well in a 7:3 ratio (Caco-2:HT29-MTX-E12) in Corning HTS Transwell-24 system PET membranes, 0.4 μM pore size, cell growth area 0.33 cm2/well (Corning BV, Amsterdam, Netherlands) and cultured as described above. Media was changed every second to third day.
For both sets of in vitro experiments, the integrity of cell monolayers after the stressor test was evaluated by both TEER values and by measuring the transport of Lucifer yellow from apical to basolateral compartments (Leaky gut model). A prewarmed HBSS transport buffer composed of Hank's Balanced Salt Solution pH 7.4 with Ca2+ and Mg2+, containing 5.5 mM D-(+)-glucose, Sodium Bicarbonate, and supplemented with 4 mM L-glutamine, 20 mM HEPES (Life Technologies Europe B.V., Zug, Switzerland) was used for all permeability experiments. The inserts were rinsed twice with HBSS using a reservoir tray, 100 μl HBSS were then added to the apical site of the inserts and subsequently moved to new wells with fresh HBSS and allowed to equilibrate at 37° C. for 60 min in the incubator followed by TEER measurement to obtain baseline resistance readings.
Lucifer Yellow CH dilithium salt (Sigma-Aldrich, Buchs, Switzerland) was dissolved in HBSS at a final concentration of 100 μg/ml. Basolateral stressor EtOH (Merck, KgaA, Darmstadt, Germany) was diluted to 5% in HBSS. Apical Stressor Rhamnolipids R90 (AGAE Technologies, Corvallis, USA) was dissolved in HBSS containing Lucifer Yellow at a final concentration of 350 μg/ml. All solutions were prepared freshly each time.
The HBSS transport buffer from the basolateral chamber was aspirated first, then the HBSS from the apical chamber and replaced with Lucifer yellow solution. For the apical stressor test, Lucifer yellow solution containing 350 μg/ml Rhamnolipids or Lucifer yellow solution without stressor for the control wells was loaded into the apical compartment, blank HBSS was subsequently added to the basolateral chamber.

HT29 cells = experiment: HT29 cell culture, quantification of immunological biomarkers; type: cell-based; conditions: effluent from 24 h fermentation, vs corresponding control
Description: as §1, with “([…]), […]” for “(0 h fermentation) and after fermentation (48 h fermentation), sterilized by filtering through 0.22 μm filters and used for short chain fatty acids (SCFA), quantification of immunological biomarkers and in vitro analysis in”
For both sets of in vitro experiments, HT29 cells were obtained from American Type Culture Collection (Manassas, VA). Cells were cultured in DMEM supplemented with 10% fetal bovine serum (FBS), 50 units/ml penicillin, 50 μg/ml streptomycin, L-glutamine, and nonessential amino acids (Life Technologies Europe B.V., Zug, Switzerland). Cells were seeded into 12-well plates at 8×10^5 cells per well and used after 2 days of preculture. They were starved in DMEM containing 0.25% FBS for 18 h before treatment. Cells were treated for 24 hours with TNF-α at 100 ng/mL or fermentation supernatants which were sterile filtered and diluted 1:20 in DMEM containing 0.25% FBS. All treatments were done in triplicate. Consequently, cytokines, chemokines and interleukins were quantified in HT29 supernatants using the Luminex Technology (LiquiChip Workstation IS 200, Qiagen, Hilden, Germany) with Bio-Plex Pro Human Cytokine Panel kits (Bio-Rad, Hercules, CA) or with Luminex Screening Assay kits (R&D Systems, Inc., Minneapolis, MN), following the manufacturer's instructions. The data were acquired with the Luminex IS 2.3 software and evaluated with the LiquiChip Analyser software (Qiagen, Hilden, Germany).

[4] = test system: fecal microbial community; experiment: Microbiome composition by shotgun sequencing: alpha diversity (first set); type: cell-based, human; conditions: after 24 h fermentation, vs corresponding control
Description: as §1, §2, §3, §4

| SMILES | relative abundance of genes involved in Acetyl-CoA fermentation to Butyrate pathway ([1]; 1× dose) | relative abundance of genes involved in Acetyl-CoA fermentation to Butyrate pathway ([1]; 5× dose) | butyrate production ([2]; 0.2× dose) | propionate production ([2]; 0.2× dose) | total SCFAs production ([2]; 0.2× dose) | acetate production ([2]; 1× dose) | butyrate production ([2]; 1× dose) | propionate production ([2]; 1× dose) | butyrate production ([2]; 5× dose) | propionate production ([2]; 5× dose) | total SCFAs production ([2]; 5× dose) | TEER, apical induction of leaky gut cellular model ([3]; 5× dose) | IL-8 production by HT29 cells (HT29 cells; 0.2× dose) | MIP3A-CCL20 production by HT29 cells (HT29 cells; 0.2× dose) | MIP3A-CCL20 production by HT29 cells (HT29 cells; 1× dose) | MIP3A-CCL20 production by HT29 cells (HT29 cells; 5× dose) | microbiome alpha diversity (Shannon diversity index) ([4]; 1× dose) | microbiome alpha diversity (Shannon diversity index) ([4]; 5× dose) | relative abundance of genes involved in Acetyl-CoA fermentation to Butyrate pathway ([1]; 0.2× dose) | total SCFAs production ([2]; 1× dose) | further results |
| --- | --- | --- | --- | --- | --- | --- | --- | --- | --- | --- | --- | --- | --- | --- | --- | --- | --- | --- | --- | --- | --- |
| CC(=O)OC/C=C(C)/C=C/C=C(C)/C=C/C1=C(C)CCCC1(C)C [Vitamin A] | increase relative abundance | increase relative abundance | increase butyrate production | increase propionate production | increase total SCFAs production | increase acetate production | increase butyrate production | increase propionate production | increase butyrate production | increase propionate production | increase total SCFAs production | increase TEER | increase IL-8 production | increase MIP3A-CCL20 production | increase MIP3A-CCL20 production | increase MIP3A-CCL20 production | increase microbiome diversity | increase microbiome diversity |  |  | Bifidobacterium relative abundance (Bifidobacterium; 1× dose): increase Bifidobacterium relative abundance; TEER, apical induction of leaky gut cellular model ([3]; 0.2× dose): increase TEER; Lucifer yellow, apical induction of leaky gut cellular model ([3]; 1× dose): decrease Lucifer yellow; TEER, apical induction of leaky gut cellular model ([3]; 1× dose): increase TEER; Lucifer yellow, apical induction of leaky gut cellular model ([3]; 5× dose): decrease Lucifer yellow; IL-8 production by HT29 cells (HT29 cells; 5× dose): increase IL-8 production |
| C=C1CC[C@H](O)C/C1=C/C=C1\CCC[C@]2(C)[C@@H]([C@H](C)CCCC(C)C)CC[C@@H]12 [Vitamin D, Vitamin D3] |  |  | increase butyrate production |  |  |  | increase butyrate production | increase propionate production |  | increase propionate production | increase total SCFAs production | increase TEER |  | increase MIP3A-CCL20 production | increase MIP3A-CCL20 production | increase MIP3A-CCL20 production |  | increase microbiome diversity | increase relative abundance | increase total SCFAs production | Bifidobacterium relative abundance (Bifidobacterium; 0.2× dose): increase Bifidobacterium relative abundance; Bifidobacterium relative abundance (Bifidobacterium; 5× dose): increase Bifidobacterium relative abundance; microbiome alpha diversity (Shannon diversity index) ([4]; 0.2× dose): increase microbiome diversity |
| CC1=C(C/C=C(\C)CCC[C@H](C)CCC[C@H](C)CCCC(C)C)C(=O)c2ccccc2C1=O [Vitamin K1] | increase relative abundance | increase relative abundance | increase butyrate production | increase propionate production | increase total SCFAs production | increase acetate production | increase butyrate production | increase propionate production | increase butyrate production | increase propionate production | increase total SCFAs production |  | increase IL-8 production | increase MIP3A-CCL20 production | increase MIP3A-CCL20 production | increase MIP3A-CCL20 production | increase microbiome diversity | increase microbiome diversity | increase relative abundance | increase total SCFAs production | acetate production ([2]; 0.2× dose): increase acetate production; acetate production ([2]; 5× dose): increase acetate production; Bifidobacterium relative abundance (Bifidobacterium; 0.2× dose): increase Bifidobacterium relative abundance; Lucifer yellow, apical induction of leaky gut cellular model ([3]; 0.2× dose): decrease Lucifer yellow; microbiome alpha diversity (Shannon diversity index) ([4]; 0.2× dose): increase microbiome diversity |
